{"source": "paper PMC8815882", "about": "“Screening the pandemic response box identified benzimidazole carbamates, Olorofim and ravuconazole as promising drug candidates for the treatment of eumycetoma” (PLoS Neglected Tropical Diseases, 2022)", "key": {"[1]": {"test_system": "ten different M. mycetomatis isolates", "assay": "MIC / MIC50 determination (XTT) in ten M. mycetomatis isolates", "assay_type": "cell-based, Madurella mycetomatis"}, "M. mycetomatis MM55": {"test_system": "M. mycetomatis MM55", "assay": "IC50 determination, 2-fold dilution series 16 to 0.03125 μM", "assay_type": "cell-based, Madurella mycetomatis", "settings": "for IC50 / IC90: Madurella mycetomatis"}, "[2]": {"test_system": "M. mycetomatis isolate MM55", "assay": "M. mycetomatis grain infection model in G. mellonella larvae, survival", "assay_type": "in vivo, Galleria mellonella", "parameters": "In vivo efficacy, Larvae survival %: concentration or dose not given beside the values", "settings": "in vivo"}, "[3]": {"test_system": "M. mycetomatis genome strain MM55", "assay": "CLSI M38-A2 based in vitro susceptibility screening (XTT or resazurin), growth at fixed concentration", "assay_type": "cell-based, Madurella mycetomatis"}, "[4]": {"settings": "Madurella mycetomatis, median MIC over ten M. mycetomatis isolates, no asterisk, read-out: MIC50"}, "[5]": {"settings": "Madurella mycetomatis, isolate CBS247.48, read-out: MIC CBS247.48"}, "[6]": {"settings": "Madurella mycetomatis, isolate MM14, read-out: MIC MM14"}, "[7]": {"settings": "Madurella mycetomatis, isolate MM45, read-out: MIC MM45"}, "[8]": {"settings": "Madurella mycetomatis, isolate MM55, read-out: MIC MM55"}, "[9]": {"settings": "Madurella mycetomatis, isolate P1, read-out: MIC P1"}, "[10]": {"settings": "Madurella mycetomatis, isolate ParijsAl1, read-out: MIC ParijsAl1"}, "[11]": {"settings": "Madurella mycetomatis, isolate Peru72012, read-out: MIC Peru72012"}, "[12]": {"settings": "Madurella mycetomatis, isolate So1, read-out: MIC So1"}, "[13]": {"settings": "Madurella mycetomatis, isolate i1, read-out: MIC i1"}, "[14]": {"settings": "Madurella mycetomatis, isolate i11, read-out: MIC i11"}, "[15]": {"settings": "MM55, Table 2, M. mycetomatis MM55, read-out: IC50"}}, "note": "Read-outs that look alike come from different tables or passages of the source.", "data": [{"compound": "O[C@@](Cn1cnnn1)(c1ccc(F)cc1F)C(F)(F)c1ccc(-c2ccc(OCC(F)(F)F)cc2)cn1", "note": "[MMV1634386, Oteseconazole, reference compound]", "values": [{"measurement": "MIC50", "setting": "[1]; [4]", "value": 1, "unit": "µM"}, {"measurement": "MIC50", "setting": "[1]; Madurella mycetomatis, over the isolates tested, read-out: MIC50 mean", "value": 1, "unit": "µM"}, {"measurement": "MIC", "setting": "[1]; [5]", "value": 16, "unit": "µM"}, {"measurement": "MIC", "setting": "[1]; [6]", "value": 1, "unit": "µM"}, {"measurement": "MIC", "setting": "[1]; [7]", "value": 1, "unit": "µM"}, {"measurement": "MIC", "setting": "[1]; [8]", "value": 4, "unit": "µM"}, {"measurement": "MIC", "setting": "[1]; [9]", "value": 2, "unit": "µM"}, {"measurement": "MIC", "setting": "[1]; [10]", "value": 2, "unit": "µM"}, {"measurement": "MIC", "setting": "[1]; [11]", "value": 4, "unit": "µM"}, {"measurement": "MIC", "setting": "[1]; [12]", "value": 1, "unit": "µM"}, {"measurement": "MIC", "setting": "[1]; [13]", "value": 0.25, "unit": "µM"}, {"measurement": "MIC", "setting": "[1]; [14]", "value": 8, "unit": "µM"}, {"measurement": "Drug static or cidal", "setting": "M. mycetomatis MM55", "value": "Cidal"}, {"measurement": "IC50", "setting": "M. mycetomatis MM55; [15]", "value": 2.66, "unit": "µM"}, {"measurement": "IC50", "setting": "M. mycetomatis MM55; MM55, mean, read-out: IC50 mean", "value": 2.66, "unit": "µM"}, {"measurement": "IC90", "setting": "M. mycetomatis MM55; MM55, read-out: IC90 mean", "value": 5.17, "unit": "µM"}, {"measurement": "IC50", "setting": "M. mycetomatis MM55; MM55, replicate 1, read-out: IC50 1", "value": 2.15, "unit": "µM"}, {"measurement": "IC90", "setting": "M. mycetomatis MM55; MM55, replicate 1, read-out: IC90 1", "value": 5, "unit": "µM"}, {"measurement": "IC50", "setting": "M. mycetomatis MM55; MM55, replicate 2, read-out: IC50 2", "value": 2.78, "unit": "µM"}, {"measurement": "IC90", "setting": "M. mycetomatis MM55; MM55, replicate 2, read-out: IC90 2", "value": 5, "unit": "µM"}, {"measurement": "IC50", "setting": "M. mycetomatis MM55; MM55, replicate 3, read-out: IC50 3", "value": 3.06, "unit": "µM"}, {"measurement": "IC90", "setting": "M. mycetomatis MM55; MM55, replicate 3, read-out: IC90 3", "value": 5.5, "unit": "µM"}, {"measurement": "In vivo efficacy, Enhanced survival compared to control?", "setting": "[2]", "value": "no"}, {"measurement": "In vivo efficacy, Larvae survival %", "setting": "[2]", "value": 11.1, "unit": "%"}, {"measurement": "activity at 25 µM", "setting": "[3]; Madurella mycetomatis, 25 uM, mean, read-out: Percentage survival at 25um, 25 uM mean", "value": -1.26, "unit": "%"}, {"measurement": "activity at 25 µM", "setting": "[3]; Madurella mycetomatis, 25 uM, replicate A, read-out: Percentage survival at 25um, 25 um A", "value": -1.75, "unit": "%"}, {"measurement": "activity at 25 µM", "setting": "[3]; Madurella mycetomatis, 25 uM, replicate B, read-out: Percentage survival at 25um, 25 uM B", "value": -2.55, "unit": "%"}, {"measurement": "activity at 25 µM", "setting": "[3]; Madurella mycetomatis, 25 uM, replicate C, read-out: Percentage survival at 25um, 25 uM C", "value": 0.501, "unit": "%"}, {"measurement": "activity at 100 µM", "setting": "[3]; Madurella mycetomatis, 100 uM, mean, read-out: Percentage survival at 100um, 100 uM mean", "value": 7.07, "unit": "%"}, {"measurement": "activity at 100 µM", "setting": "[3]; Madurella mycetomatis, 100 uM, replicate (first column), read-out: Percentage survival at 100um, 100 uM A", "value": -1.99, "unit": "%"}, {"measurement": "activity at 100 µM", "setting": "[3]; Madurella mycetomatis, 100 uM, replicate (second column), read-out: Percentage survival at 100um, 100 uM A", "value": 9.06, "unit": "%"}, {"measurement": "activity at 100 µM", "setting": "[3]; Madurella mycetomatis, 100 uM, replicate (third column), read-out: Percentage survival at 100um, 100 uM A", "value": 14.2, "unit": "%"}]}, {"compound": "O=S(=O)(Nc1ccc(-n2cccc2)cc1)c1ccc(Cl)c(Cl)c1", "note": "[MMV1505642]", "values": [{"measurement": "MIC50", "setting": "[1]; [4]", "value": 16, "unit": "µM"}, {"measurement": "MIC50", "setting": "[1]; Madurella mycetomatis, over the tested M. mycetomatis isolates, read-out: MIC50 mean", "value": 16, "unit": "µM"}, {"measurement": "MIC", "setting": "[1]; [5]", "value": "> 16", "unit": "µM"}, {"measurement": "MIC", "setting": "[1]; [6]", "value": 16, "unit": "µM"}, {"measurement": "MIC", "setting": "[1]; [7]", "value": 8, "unit": "µM"}, {"measurement": "MIC", "setting": "[1]; [8]", "value": 16, "unit": "µM"}, {"measurement": "MIC", "setting": "[1]; [9]", "value": 16, "unit": "µM"}, {"measurement": "MIC", "setting": "[1]; [10]", "value": "> 16", "unit": "µM"}, {"measurement": "MIC", "setting": "[1]; [11]", "value": 16, "unit": "µM"}, {"measurement": "MIC", "setting": "[1]; [12]", "value": "> 16", "unit": "µM"}, {"measurement": "MIC", "setting": "[1]; [13]", "value": 16, "unit": "µM"}, {"measurement": "MIC", "setting": "[1]; [14]", "value": 16, "unit": "µM"}, {"measurement": "Drug static or cidal", "setting": "M. mycetomatis MM55; M. mycetomatis", "value": "Cidal"}, {"measurement": "IC50", "setting": "M. mycetomatis MM55; [15]", "value": 7.35, "unit": "µM"}, {"measurement": "IC90", "setting": "M. mycetomatis MM55; MM55, mean of replicates, read-out: IC90 mean", "value": 21.8, "unit": "µM"}, {"measurement": "IC50", "setting": "M. mycetomatis MM55; MM55, replicate 1, read-out: IC50 1 um", "value": 3.55, "unit": "µM"}, {"measurement": "IC90", "setting": "M. mycetomatis MM55; MM55, replicate 1, read-out: IC90 1 um", "value": 20.3, "unit": "µM"}, {"measurement": "IC50", "setting": "M. mycetomatis MM55; MM55, replicate 2, read-out: IC50 2 um", "value": 8.05, "unit": "µM"}, {"measurement": "IC90", "setting": "M. mycetomatis MM55; MM55, replicate 2, read-out: IC90 2 um", "value": 22.6, "unit": "µM"}, {"measurement": "IC50", "setting": "M. mycetomatis MM55; MM55, replicate 3, read-out: IC50 3 um", "value": 10.5, "unit": "µM"}, {"measurement": "IC90", "setting": "M. mycetomatis MM55; MM55, replicate 3, read-out: IC90 3 um", "value": 22.6, "unit": "µM"}, {"measurement": "activity at 25 µM", "setting": "[3]; Madurella mycetomatis, 25 uM, mean of three, M. mycetomatis MM55, read-out: Percentage survival at 25um, 25 uM mean", "value": 0.829, "unit": "%"}, {"measurement": "activity at 25 µM", "setting": "[3]; Madurella mycetomatis, 25 uM, replicate A, M. mycetomatis MM55, read-out: Percentage survival at 25um, 25 um A", "value": -1.91, "unit": "%"}, {"measurement": "activity at 25 µM", "setting": "[3]; Madurella mycetomatis, 25 uM, replicate B, M. mycetomatis MM55, read-out: Percentage survival at 25um, 25 uM B", "value": 1.17, "unit": "%"}, {"measurement": "activity at 25 µM", "setting": "[3]; Madurella mycetomatis, 25 uM, replicate C, M. mycetomatis MM55, read-out: Percentage survival at 25um, 25 uM C", "value": 3.22, "unit": "%"}, {"measurement": "activity at 100 µM", "setting": "[3]; Madurella mycetomatis, 100 uM, mean of three, M. mycetomatis MM55, read-out: Percentage survival at 100um, 100 uM mean", "value": 1.07, "unit": "%"}, {"measurement": "activity at 100 µM", "setting": "[3]; Madurella mycetomatis, 100 uM, replicate 1, M. mycetomatis MM55, read-out: Percentage survival at 100um, 100 uM A (first replicate column)", "value": -0.332, "unit": "%"}, {"measurement": "Percent fungal survival at 100 µM", "setting": "[3]; Madurella mycetomatis, 100 uM, replicate 2, M. mycetomatis MM55, read-out: Percentage survival at 100um, 100 uM A (second replicate column)", "value": -0.607, "unit": "%"}, {"measurement": "activity at 100 µM", "setting": "[3]; Madurella mycetomatis, 100 uM, replicate 3, M. mycetomatis MM55, read-out: Percentage survival at 100um, 100 uM A (third replicate column)", "value": 4.16, "unit": "%"}]}, {"compound": "Miconazole [MMV689401, reference compound]", "values": [{"measurement": "MIC50", "setting": "[1]; median MIC over ten M. mycetomatis isolates, no asterisk, read-out: MIC50", "value": 0.13, "unit": "µM"}, {"measurement": "MIC range", "setting": "[1]; range of MIC over ten M. mycetomatis isolates, no asterisk", "value": "<0.03 to 0.25", "unit": "µM"}, {"measurement": "Percentage survival at 25um, 25 uM B", "setting": "[3]", "value": 77.7759, "unit": "%"}, {"measurement": "Percentage survival at 25um, 25 uM C", "setting": "[3]", "value": 51.747, "unit": "%"}, {"measurement": "Percentage survival at 25um, 25 uM mean", "setting": "[3]", "value": 64.2303, "unit": "%"}, {"measurement": "Percentage survival at 25um, 25 um A", "setting": "[3]; 25 uM, replicate A, M. mycetomatis MM55", "value": 63.1681, "unit": "%"}, {"measurement": "Percentage survival at 100um, 100 uM mean", "setting": "[3]; 100 uM, mean of three, M. mycetomatis MM55", "value": 51.5997, "unit": "%"}, {"measurement": "Percentage survival at 100um, 100 uM A (first replicate column)", "setting": "[3]; 100 uM, replicate 1, M. mycetomatis MM55", "value": 60.4441, "unit": "%"}, {"measurement": "Percentage survival at 100um, 100 uM A (second replicate column)", "setting": "[3]; 100 uM, replicate 2, M. mycetomatis MM55", "value": 58.6196, "unit": "%"}, {"measurement": "Percentage survival at 100um, 100 uM A (third replicate column)", "setting": "[3]; 100 uM, replicate 3, M. mycetomatis MM55", "value": 35.7354, "unit": "%"}]}]}
